# From patent publication US12545659B2, “IRAK degraders and uses thereof” (Kymera Therapeutics, Inc., priority 2019, dated 2026)
# Target: T1, IRAK4 (Homo sapiens, UniProt Q9NWZ3)
# T1 construct: endogenous in cells; host or cells: OCI-LY10
# T1 sequence (Q9NWZ3 1-460): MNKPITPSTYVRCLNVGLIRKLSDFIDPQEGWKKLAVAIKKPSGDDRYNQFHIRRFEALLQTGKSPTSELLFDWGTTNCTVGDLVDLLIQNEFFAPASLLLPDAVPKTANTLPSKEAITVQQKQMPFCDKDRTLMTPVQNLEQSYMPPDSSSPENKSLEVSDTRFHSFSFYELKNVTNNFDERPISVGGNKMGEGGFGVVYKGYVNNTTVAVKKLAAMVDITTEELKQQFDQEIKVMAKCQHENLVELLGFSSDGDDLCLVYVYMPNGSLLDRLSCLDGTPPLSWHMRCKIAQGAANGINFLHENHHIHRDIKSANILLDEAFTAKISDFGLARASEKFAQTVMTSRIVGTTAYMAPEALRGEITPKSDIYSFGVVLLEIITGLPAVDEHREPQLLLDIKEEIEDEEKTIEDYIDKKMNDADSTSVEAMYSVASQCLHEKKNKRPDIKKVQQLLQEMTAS
# Test: IRAK4 MSD Degradation in OCI-LY10
# Format: cell-based
# Settings: OCI-LY10 cells, 4 hrs incubation, read-out: IRAK4 degradation in OCI-LY10 at 4 hrs: DC50
# Summary of the method: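 OCI-LY10 cells treated with 8-dose, 1:3 dilution series (top final 1 to 10 μM) for 4 to 24 h at 37 °C, 5% CO2. Lysate IRAK4 quantified by MSD sandwich immunoassay (mouse 2H9 capture, rabbit Y279 detection, SULFO-TAG anti-rabbit); DC50 from three-parameter logistic fit.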
row,DC50,SMILES
1,< 50 nM,Cn1c(=O)n(C2CCC(=O)NC2=O)c2cccc(N3CCN(C[C@H]4CC[C@H](n5cc6cc(NC(=O)c7cccc(C(F)(F)F)n7)c(C(F)F)cc6n5)CC4)CC3)c21 (some centres unmarked) [I-176]
2,50 to 100 nM,Cn1c(=O)n(C2CCC(=O)NC2=O)c2cccc(N3CCN(C[C@H]4CC[C@H](n5cc6cc(NC(=O)c7cccc(C(C)(C)F)n7)c(C(F)F)cc6n5)CC4)CC3)c21 (some centres unmarked) [I-177]
3,< 50 nM,CN(C[C@H]1CC[C@H](n2cc3cc(NC(=O)c4cccc(C(F)(F)F)n4)c(N4CCOCC4)cc3n2)CC1)C1CCN(c2cccc3c2n(C)c(=O)n3C2CCC(=O)NC2=O)CC1 (some centres unmarked) [I-178]
4,< 50 nM,CN(C[C@H]1CC[C@H](n2cc3cc(NC(=O)c4cccc(C(F)(F)F)n4)c(N4C[C@@H]5C[C@H]4CO5)cc3n2)CC1)C1CCN(c2cccc3c2n(C)c(=O)n3C2CCC(=O)NC2=O)CC1 (some centres unmarked) [I-179]
5,< 50 nM,COc1cc2nn([C@H]3CC[C@H](CN(C)C4CCN(c5cccc6c5n(C)c(=O)n6C5CCC(=O)NC5=O)CC4)CC3)cc2cc1NC(=O)c1ccc(F)c(C)n1 (some centres unmarked) [I-189]

# Same assay, conditions: OCI-LY10 cells, 24 hrs incubation, read-out: IRAK4 degradation in OCI-LY10 at 24 hrs: DC50
row,DC50,SMILES
1,100 to 500 nM,COc1cc2nc([C@H]3CC[C@H](CN4CC5(CC(CCNc6cccc7c6C(=O)N(C6CCC(=O)NC6=O)C7=O)C5)C4)CC3)oc2cc1NC(=O)c1cccc(C(F)(F)F)n1 (some centres unmarked) [I-180]
2,500 to 1000 nM,"CN[C@@H](C)C(=O)N[C@H](C(=O)N1CCC[C@H]1c1nc(C(=O)c2cccc(OCCCC3CC4(CCN(C[C@H]5CC[C@H](n6cc7cc(NC(=O)c8cccc(C(F)(F)F)n8)c(OC)cc7n6)CC5)CC4)C3)c2)cs1)C1CCCCC1 [I-181, N-[2-[4-[[2-[3-[3-[2-[(2S)-1-[(2S)-2-cyclohexyl-2-[[(2S)-2-(methylamino)propanoyl]amino]acetyl]pyrrolidin-2-yl]thiazole-4-carbonyl]phenoxy]propyl]-7-azaspiro[3.5]nonan-7-yl]methyl]cyclohexyl]-6-methoxy-indazol-5-yl]-6-(trifluoromethyl)pyridine-2-carboxamide]"
3,500 to 1000 nM,CC(C)(O)c1cc2nc([C@H]3CC[C@H](CN4CCC5(CC4)CC(CCNc4cccc6c4C(=O)N(C4CCC(=O)NC4=O)C6=O)C5)CC3)oc2cc1NC(=O)c1cccc(C(F)(F)F)n1 (some centres unmarked) [I-182]
4,50 to 100 nM,CC(C)(O)c1cc2nc([C@H]3CC[C@H](CN4CCC5(CC4)CC(Nc4cccc6c4C(=O)N(C4CCC(=O)NC4=O)C6=O)C5)CC3)oc2cc1NC(=O)c1cccc(C(F)(F)F)n1 (some centres unmarked) [I-183]
5,50 to 100 nM,CC(C)(O)c1cc2nc(N3CCC(CN4CCC5(CC4)CC(Nc4cccc6c4C(=O)N(C4CCC(=O)NC4=O)C6=O)C5)CC3)oc2cc1NC(=O)c1cccc(C(F)(F)F)n1 (centres unmarked) [I-184]
6,50 to 100 nM,COc1cc2nn([C@H]3CC[C@H](CN(C)[C@H]4CC[C@]5(CC4)C[C@@H](CNc4cccc6c4C(=O)N(C4CCC(=O)NC4=O)C6=O)C5)CC3)cc2cc1NC(=O)c1cccc(C(F)(F)F)n1 (some centres unmarked) [I-185]
7,500 to 1000 nM,"CN[C@@H](C)C(=O)N[C@H](C(=O)N1Cc2cc(OCCCC3CC4(CCN(C[C@H]5CC[C@H](n6cc7cc(NC(=O)c8cccc(C(F)(F)F)n8)c(OC)cc7n6)CC5)CC4)C3)ccc2C[C@H]1C(=O)N[C@@H]1CCCc2ccccc21)C(C)(C)C [I-186, (3S)-2-[(2S)-3,3-Dimethyl-2-[[(2S)-2-(methylamino)propanoyl]amino]butanoyl]-7-[3-[7-[[4-[6-methoxy-5-[[6-(trifluoromethyl)pyridine-2-carbonyl]amino]indazol-2-yl]cyclohexyl]methyl]-7-azaspiro[3.5]nonan-2-yl]propoxy]-N-[(1R)-tetralin-1-yl]-3,4-dihydro-1H-isoquinoline-3-carboxamide]"
8,50 to 100 nM,CC(C)(O)c1cc2nn([C@H]3CC[C@H](CN4CCC5(CC4)CC(CNc4cccc6c4C(=O)N(C4CCC(=O)NC4=O)C6=O)C5)CC3)cc2cc1NC(=O)c1cccc(S(F)(F)(F)(F)F)n1 (some centres unmarked) [I-187]
9,50 to 100 nM,COc1c(NC(=O)c2cccc(C(C)(F)F)n2)cc2cn([C@H]3CC[C@H](CN4CC5(CC(CCNc6cccc7c6C(=O)N(C6CCC(=O)NC6=O)C7=O)C5)C4)CC3)nc2c1C (some centres unmarked) [I-188]
